Reference: patent US11555026B2, “AHR inhibitors and uses thereof” (Ikena Oncology, Inc., priority 2017, dated 2023)

target: T1, AHR (UniProt P35869); assay: DRE-Luciferase Reporter Assay (Alternate Method, Example 1B); assay type: cell-based; design: IC50; other: alternate method: compound and agonist added at plating or after overnight incubation; murine (Hepa1-6, He); conditions: alternate method: compound and agonist added at plating or after overnight incubation; murine (Hepa1-6, Hepa-1c1c7) or human (HepG2) DRE-luciferase reporter cells, cell line used not stated
T1 sequence (P35869 1-848): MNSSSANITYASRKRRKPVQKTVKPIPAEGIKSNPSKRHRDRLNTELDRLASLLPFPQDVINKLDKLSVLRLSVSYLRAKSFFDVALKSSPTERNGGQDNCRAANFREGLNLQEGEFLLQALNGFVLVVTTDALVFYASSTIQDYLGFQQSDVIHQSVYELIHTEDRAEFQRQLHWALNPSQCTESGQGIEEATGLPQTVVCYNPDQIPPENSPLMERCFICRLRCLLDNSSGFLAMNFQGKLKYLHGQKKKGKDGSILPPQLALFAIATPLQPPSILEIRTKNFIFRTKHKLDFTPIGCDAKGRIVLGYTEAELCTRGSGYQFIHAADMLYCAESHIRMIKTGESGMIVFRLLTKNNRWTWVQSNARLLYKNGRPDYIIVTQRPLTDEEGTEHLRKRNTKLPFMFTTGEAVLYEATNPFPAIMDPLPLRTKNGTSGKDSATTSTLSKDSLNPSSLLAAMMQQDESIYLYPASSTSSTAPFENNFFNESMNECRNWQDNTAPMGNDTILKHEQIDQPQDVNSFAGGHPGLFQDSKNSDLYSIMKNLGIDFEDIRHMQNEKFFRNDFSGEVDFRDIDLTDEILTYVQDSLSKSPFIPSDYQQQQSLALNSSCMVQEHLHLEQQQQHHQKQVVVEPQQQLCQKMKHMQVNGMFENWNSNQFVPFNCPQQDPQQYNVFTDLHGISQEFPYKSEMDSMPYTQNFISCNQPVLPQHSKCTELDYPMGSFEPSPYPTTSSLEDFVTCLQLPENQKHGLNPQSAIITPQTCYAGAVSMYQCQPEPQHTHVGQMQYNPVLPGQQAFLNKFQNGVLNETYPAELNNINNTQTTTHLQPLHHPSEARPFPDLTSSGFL
Experimental: AHR binds to Dioxin Responsive Elements (DRE) upstream of genes that it activates. One measure of AHR activity is activation of a reporter gene, such as luciferase, downstream of one or multiple DRE elements. Luciferase activity will reflect activation and inhibition of AHR in the cells expressing his reporter.
Murine Hepa1-6 or Hepa-1c1c7 or other murine cell line with a DRE-luciferase reporter either stably or transiently transfected were plated in media in plates (96-well, 384-well or other plates) and incubated overnight at 37° C. in a CO2 incubator or compound and agonist were added at the time of plating. Likewise, human HepG2 or other human cell line with a DRE-luciferase reporter either stably or transiently transfected were plated in media in plates (96-well, 384-well or other plates) and incubated overnight at 37° C. in a CO2 incubator or compound and agonist were added at the time of plating.
At the time that cells are plated or following incubation overnight, an AHR activating ligand, such as TCDD, kynurenine, ITE (2-(1H-indole-3-ylcarbonyl)-4-thiazolecarboxylic methyl ester), VAF347, BNF (beta-naphthoflavone), FICZ (6-formylindolo(3,2-b) carbazole or other AHR ligands, was added with or without AHR antagonist.
Cells were incubated for 4, 15 or 24 hours or another time point and then lysed for determination of luciferase activity as a read-out of the AHR activation or inhibition. Luciferase was measured with a commercial kit such as the Promega Luciferase kit or any kit or reagents that provide the luciferin substrate for measuring luciferase activity. The level of luciferase with only activating ligand added was the maximum signal while the luciferase with no ligand was the minimum signal. IC50 values were determined as the concentration which inhibits half of the luciferase activity.

SMILES	IC50 [nM]
Cc1ccccc1-c1ccc2cc(NC(=O)c3ccnn3C)ccc2c1 [I-52, 2-Methyl-N-[6-(o-tolyl)-2-naphthyl]pyrazole-3-carboxamide]	> 1500
CC#Cc1ccc(NC(=O)c2ccnn2C)c(C)c1 [I-61, 2-methyl-N-(2-methyl-4-prop-1-ynyl-phenyl)pyrazole-3-carboxamide]	> 1500
Cn1nccc1C(=O)Nc1ccc(C#Cc2ccccc2)cc1 [I-63, 2-Methyl-N-[4-(2-phenylethynyl)phenyl]pyrazole-3-carboxamide]	> 1500
Cn1cncc1C(=O)Nc1ccc2cc(-c3ccccc3)cnc2c1 [I-79, 3-Methyl-N-(3-phenyl-7-quinolyl)imidazole-4-carboxamide]	> 1500
Cn1nccc1C(=O)Nc1ccc(C#Cc2ccccc2)c2c1OCO2 [I-59, 2-Methyl-N-[7-(2-phenylethynyl)-1,3-benzodioxol-4-yl]pyrazole-3-carboxamide]	> 1500
Cn1nccc1C(=O)Nc1ccc2cc(-c3ccccc3)cnc2c1 [I-70]	< 500
Cc1cc(C#CC2CCCCC2)ccc1NC(=O)c1ccnn1C [I-54, N-[4-(2-Cyclohexylethynyl)-2-methyl-phenyl]-2-methyl-pyrazole-3-carboxamide]	> 1500
Cn1nccc1C(=O)Nc1ccc2nc(-c3ccccc3)cnc2c1 [I-65]	500 to 1000
Cn1nccc1C(=O)Nc1ccc2cc(C3CCCCC3)cnc2c1 [I-49, N-(3-Cyclohexyl-7-quinolyl)-2-methyl-pyrazole-3-carboxamide]	> 1500
Cn1nccc1C(=O)Nc1ccc2cc(-c3ccc(N4CCOCC4)cc3)cnc2c1 [I-80, 2-Methyl-N-[3-(4-morpholinophenyl)-7-quinolyl]pyrazole-3-carboxamide]	> 1500
O=C(Nc1ccc2cc(-c3ccccc3)cnc2c1)c1ccn[nH]1 [I-78, N-(3-Phenyl-7-quinolyl)-1H-pyrazole-5-carboxamide]	500 to 1000
COc1cc(C#Cc2ccccc2)ccc1NC(=O)c1ccnn1C [I-60, N-[2-Methoxy-4-(2-phenylethynyl)phenyl]-2-methyl-pyrazole-3-carboxamide]	> 1500
CC(C)n1nccc1C(=O)Nc1ccc2cc(-c3ccccc3)cnc2c1 [I-76, 2-Isopropyl-N-(3-phenyl-7-quinolyl)pyrazole-3-carboxamide]	> 1500
Cn1nccc1C(=O)Nc1ccc2cc(-c3ccccc3O)cnc2c1 [I-81, N-[3-(2-Hydroxyphenyl)-7-quinolyl]-2-methyl-pyrazole-3-carboxamide]	1000 to 1500
Cn1nccc1C(=O)Nc1ccc2cc(-c3ccccc3C(F)(F)F)cnc2c1 [I-88, 2-Methyl-N-[3-[2-(trifluoromethyl)phenyl]-7-quinolyl]pyrazole-3-carboxamide]	> 1500
Cn1nccc1C(=O)Nc1ccc2cc(-c3cccc(C(F)(F)F)c3)cnc2c1 [I-84, 2-Methyl-N-[3-[3-(trifluoromethyl)phenyl]-7-quinolyl]pyrazole-3-carboxamide]	< 500
Cn1nccc1C(=O)Nc1ccc2cc(-c3cccc(N4CCOCC4)c3)cnc2c1 [I-85, 2-Methyl-N-[3-(3-morpholinophenyl)-7-quinolyl]pyrazole-3-carboxamide]	> 1500
Cn1nccc1C(=O)Nc1cnc2cc(-c3ccccc3)ccc2c1 [I-67]	500 to 1000
Cc1cc(C#CC2CCNCC2)ccc1NC(=O)c1ccnn1C [I-57, 2-Methyl-N-[2-methyl-4-[2-(4-piperidyl)ethynyl]phenyl]pyrazole-3-carboxamide]	> 1500
Cn1nccc1C(=O)Nc1ccc2cc(-c3ccsc3)cnc2c1 [I-48, 2-Methyl-N-[3-(3-thienyl)-7-quinolyl]pyrazole-3-carboxamide]	< 500
Cc1cc(C#Cc2cccc3c2OCO3)ccc1NC(=O)c1ccnn1C [I-53, N-[4-[2-(1,3-Benzodioxol-4-yl)ethynyl]-2-methyl-phenyl]-2-methyl-pyrazole-3-carboxamide]	> 1500
Cc1cc(C#Cc2cccnc2)ccc1NC(=O)c1ccnn1C [I-56, 2-Methyl-N-[2-methyl-4-[2-(3-pyridyl)ethynyl]phenyl]pyrazole-3-carboxamide]	> 1500
Cc1ccccc1-c1ccc2c(C)c(NC(=O)c3ccnn3C)ccc2n1 [I-72]	> 1500

SMILES	IC50 [nM]
Cc1cc(/C=C/c2ccccc2)ccc1N(C)C(=O)c1ccnn1C [I-66]	500 to 1000
Cc1cc(C2CC2c2ccccc2)ccc1NC(=O)c1ccnn1C (stereo not drawn) [I-71]	> 1500
Cn1nccc1C(=O)Nc1ccc(C#Cc2ccccc2)cc1C(F)(F)F [I-62]	> 1500
Cc1ccccc1-c1cnc2cc(NC(=O)c3ccnn3C)ccc2c1 [I-51, 2-Methyl-N-[3-(o-tolyl)-7-quinolyl]pyrazole-3-carboxamide]	< 500
Cn1nccc1C(=O)Nc1ccc2cc(-c3ccc(C(F)(F)F)cc3)cnc2c1 [I-87, 2-Methyl-N-[3-[4-(trifluoromethyl)phenyl]-7-quinolyl]pyrazole-3-carboxamide]	> 1500
Cn1nccc1C(=O)Nc1ccc2cc(-c3ccc(O)cc3)cnc2c1 [I-86, N-[3-(4-Hydroxyphenyl)-7-quinolyl]-2-methyl-pyrazole-3-carboxamide]	> 1500
Cn1nccc1C(=O)Nc1ccc2cc(-c3cccs3)cnc2c1 [I-46, 2-Methyl-N-[3-(2-thienyl)-7-quinolyl]pyrazole-3-carboxamide]	< 500
Cn1nccc1C(=O)Nc1ccc2cc(-c3nccs3)cnc2c1 [I-44, 2-Methyl-N-(3-thiazol-2-yl-7-quinolyl)pyrazole-3-carboxamide]	< 500
Cn1nccc1C(=O)Nc1ccc2c(=O)n(-c3ccccc3)cnc2c1 [I-77, 2-Methyl-N-(4-oxo-3-phenyl-quinazolin-7-yl)pyrazole-3-carboxamide]	> 1500
Cn1nccc1C(=O)Nc1ccc2cc(-c3ccccc3N3CCOCC3)cnc2c1 [I-83, 2-Methyl-N-[3-(2-morpholinophenyl)-7-quinolyl]pyrazole-3-carboxamide]	> 1500
Cc1cc(C#Cc2ccccn2)ccc1NC(=O)c1ccnn1C [I-58, 2-Methyl-N-[2-methyl-4-[2-(2-pyridyl)ethynyl]phenyl]pyrazole-3-carboxamide]	> 1500
CC(=O)Nc1ccc2cc(-c3ccccc3)cnc2c1 [I-47, N-(3-Phenyl-7-quinolyl)acetamide]	> 1500
COc1ccccc1C#Cc1ccc(NC(=O)c2ccnn2C)c(C)c1 [I-64]	> 1500
Cc1cc(C#Cc2ccncc2)ccc1NC(=O)c1ccnn1C [I-55, 2-Methyl-N-[2-methyl-4-[2-(4-pyridyl)ethynyl]phenyl]pyrazole-3-carboxamide]	> 1500
Cc1ccccc1-c1cnc2ccc(NC(=O)c3ccnn3C)c(C)c2c1 [I-69]	> 1500
Cn1nccc1C(=O)Nc1ccc2cccnc2c1 [I-50, 2-Methyl-N-(7-quinolyl)pyrazole-3-carboxamide]	> 1500
Cc1cc(/N=N/c2cccc3ccccc23)ccc1NC(=O)c1ccnn1C [I-75]	500 to 1000
Cc1ccccc1/C=C/c1ccc(C(=O)Nc2ccnn2C)c(C)c1 [I-73]	> 1500
Cn1nccc1C(=O)Nc1ccc2cc(-c3ncco3)cnc2c1 [I-45, 2-Methyl-N-(3-oxazol-2-yl-7-quinolyl)pyrazole-3-carboxamide]	500 to 1000
Cc1c(NC(=O)c2ccnn2C)ccc2nc(-c3ccccc3)ccc12 [I-68]	> 1500
Cc1cc(/N=N/c2cccc3cccnc23)ccc1NC(=O)c1ccnn1C [I-74]	> 1500
Cn1nccc1C(=O)Nc1ccc2cc(-c3cccc(O)c3)cnc2c1 [I-82, N-[3-(3-Hydroxyphenyl)-7-quinolyl]-2-methyl-pyrazole-3-carboxamide]	1000 to 1500
